These molecules were tested on HCT116 colorectal cancer cells (assay: Cisplatin sensitization assay (96 h cell viability MTS)). Details: compound and Cisplatin added simultaneously, Cisplatin sensitization value.
Assay type: cell-based
Summary of the method: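 Compound and cisplatin added together as a full matrix of 2-fold serial dilutions from a top final concentration of 10 μM; cells incubated 96 h at 37° C, 5% CO2. Viability then read by MTS after 1 h further incubation; sensitization value reported in μM bins.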
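Note: Test-compound concentration that lowers the Cisplatin IC50 by a set fold.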

With CS(=O)(=O)C1CCCN(c2ccncc2NC(=O)c2c(N)nn3cc(F)cnc23)C1 (stereo not drawn) [I-N-221, 2-amino-6-fluoro-N-(4-(3-(methylsulfonyl)piperidin-1-yl)pyridin-3-yl)pyrazolo[1,5-a]pyrimidine-3-carboxamide] as the molecule, how does the “Cisplatin Sensitization Assay” value read?
The value was “++ (Cisplatin sensitization value>0.02 μM but <0.2 μM)”.

Which “Cisplatin Sensitization Assay” value does the source give for Nc1nn2cc(F)cnc2c1C(=O)Nc1cnccc1N1CC(=O)N2CCCC2C1 (stereo not drawn) [I-N-222, 2-amino-6-fluoro-N-(4-(4-oxohexahydropyrrolo[1,2-a]pyrazin-2(1H)-yl)pyridin-3-yl)pyrazolo[1,5-a]pyrimidine-3-carboxamide] here?
The value was “++ (Cisplatin sensitization value>0.02 μM but <0.2 μM)”.

Cc1ccnn1-c1ccncc1NC(=O)c1c(N)nn2cc(F)cnc12 [I-N-223, 2-amino-6-fluoro-N-(4-(5-methyl-1H-pyrazol-1-yl)pyridin-3-yl)pyrazolo[1,5-a]pyrimidine-3-carboxamide] was tested. Which “Cisplatin Sensitization Assay” value did it give?
Its value is “++ (Cisplatin sensitization value>0.02 μM but <0.2 μM)”.

How did the “Cisplatin Sensitization Assay” value turn out when CN1C[C@@H]2CCN(c3ccncc3NC(=O)c3c(N)nn4cc(F)cnc34)C[C@@H]2C1=O [I-N-224, 2-amino-6-fluoro-N-(4-((3aR,7aR)-2-methyl-3-oxohexahydro-1H-pyrrolo[3,4-c]pyridin-5(6H)-yl)pyridin-3-yl)pyrazolo[1,5-a]pyrimidine-3-carboxamide] was run?
Its value is “+ (Cisplatin sensitization value>0.2 μM but <5 μM)”.

Cc1ccn(-c2ccncc2NC(=O)c2c(N)nn3cc(F)cnc23)n1 [I-N-225, 2-amino-6-fluoro-N-(4-(3-methyl-1H-pyrazol-1-yl)pyridin-3-yl)pyrazolo[1,5-a]pyrimidine-3-carboxamide] was tested. Which “Cisplatin Sensitization Assay” value did it give?
Its value is “++ (Cisplatin sensitization value>0.02 μM but <0.2 μM)”.

Nc1nn2cc(F)cnc2c1C(=O)Nc1cnccc1N1CCC2(CC1)COC2 [I-N-226, N-(4-(2-oxa-7-azaspiro[3.5]nonan-7-yl)pyridin-3-yl)-2-amino-6-fluoropyrazolo[1,5-a]pyrimidine-3-carboxamide] was tested. Which “Cisplatin Sensitization Assay” value did it give?
The value was “+++ (Cisplatin sensitization value of <0.02 μM)”.

For CN1CCOCC1C(=O)N1CCN(c2c(F)cncc2NC(=O)c2c(N)nn3cc(F)cnc23)CC1 (stereo not drawn) [I-N-227, 2-amino-6-fluoro-N-(5-fluoro-4-(4-(4-methylmorpholine-3-carbonyl)piperazin-1-yl)pyridin-3-yl)pyrazolo[1,5-a]pyrimidine-3-carboxamide], which “Cisplatin Sensitization Assay” value is on record?
The value was “+++ (Cisplatin sensitization value of <0.02 μM)”.

Nc1nn2cc(F)cnc2c1C(=O)Nc1cncc(F)c1N1CCN(CC(=O)N2CCC2)CC1 [I-N-228, 2-amino-N-(4-(4-(2-(azetidin-1-yl)-2-oxoethyl)piperazin-1-yl)-5-fluoropyridin-3-yl)-6-fluoropyrazolo[1,5-a]pyrimidine-3-carboxamide] was tested. Which “Cisplatin Sensitization Assay” value did it give?
Its value is “+++ (Cisplatin sensitization value of <0.02 μM)”.

How did the “Cisplatin Sensitization Assay” value turn out when CN1CC2(CCN(c3c(F)cncc3NC(=O)c3c(N)nn4cc(F)cnc34)CC2)OC1=O [I-N-229, 2-amino-6-fluoro-N-(5-fluoro-4-(3-methyl-2-oxo-1-oxa-3,8-diazaspiro[4.5]decan-8-yl)pyridin-3-yl)pyrazolo[1,5-a]pyrimidine-3-carboxamide] was run?
Its value is “+++ (Cisplatin sensitization value of <0.02 μM)”.

How did the “Cisplatin Sensitization Assay” value turn out when Nc1nn2cc(F)cnc2c1C(=O)Nc1cnccc1N1CCC(N2CCCC2=O)CC1 [I-N-230, 2-amino-6-fluoro-N-(4-(4-(2-oxopyrrolidin-1-yl)piperidin-1-yl)pyridin-3-yl)pyrazolo[1,5-a]pyrimidine-3-carboxamide] was run?
The value was “+++ (Cisplatin sensitization value of <0.02 μM)”.

How did the “Cisplatin Sensitization Assay” value turn out when CN1CC2(CCC1=O)CCN(c1ccncc1NC(=O)c1c(N)nn3cc(F)cnc13)CC2 [I-N-231, 2-amino-6-fluoro-N-(4-(2-methyl-3-oxo-2,9-diazaspiro[5.5]undecan-9-yl)pyridin-3-yl)pyrazolo[1,5-a]pyrimidine-3-carboxamide] was run?
The value was “+++ (Cisplatin sensitization value of <0.02 μM)”.

With Nc1nn2cc(F)cnc2c1C(=O)Nc1cncc(F)c1N1CC(=O)N2CCCC2C1 (stereo not drawn) [I-N-232, 2-amino-6-fluoro-N-(5-fluoro-4-(4-oxohexahydropyrrolo[1,2-a]pyrazin-2(1H)-yl)pyridin-3-yl)pyrazolo[1,5-a]pyrimidine-3-carboxamide] as the molecule, how does the “Cisplatin Sensitization Assay” value read?
The value was “++ (Cisplatin sensitization value>0.02 μM but <0.2 μM)”.

With CN1CCN2CCN(c3ccncc3NC(=O)c3c(N)nn4cc(F)cnc34)CC2C1=O (stereo not drawn) [I-N-233, 2-amino-6-fluoro-N-(4-(8-methyl-9-oxohexahydro-1H-pyrazino[1,2-a]pyrazin-2(6H)-yl)pyridin-3-yl)pyrazolo[1,5-a]pyrimidine-3-carboxamide] as the molecule, how does the “Cisplatin Sensitization Assay” value read?
The value was “++ (Cisplatin sensitization value>0.02 μM but <0.2 μM)”.

For CN(C)C(=O)C1CN(c2ccncc2NC(=O)c2c(N)nn3cc(F)cnc23)CCO1 (stereo not drawn) [I-N-234, 4-(3-(2-amino-6-fluoropyrazolo[1,5-a]pyrimidine-3-carboxamido)pyridin-4-yl)-N,N-dimethylmorpholine-2-carboxamide], which “Cisplatin Sensitization Assay” value is on record?
Its value is “+ (Cisplatin sensitization value>0.2 μM but <5 μM)”.

Which “Cisplatin Sensitization Assay” value does the source give for CN1C(=O)CCC12CCN(c1ccncc1NC(=O)c1c(N)nn3cc(F)cnc13)CC2 [I-N-235, 2-amino-6-fluoro-N-(4-(1-methyl-2-oxo-1,8-diazaspiro[4.5]decan-8-yl)pyridin-3-yl)pyrazolo[1,5-a]pyrimidine-3-carboxamide] here?
Its value is “++ (Cisplatin sensitization value>0.02 μM but <0.2 μM)”.

With CN1CC2(CCN(c3ccncc3NC(=O)c3c(N)nn4cc(F)cnc34)CC2)CC1=O [I-N-236, 2-amino-6-fluoro-N-(4-(2-methyl-3-oxo-2,8-diazaspiro[4.5]decan-8-yl)pyridin-3-yl)pyrazolo[1,5-a]pyrimidine-3-carboxamide] as the molecule, how does the “Cisplatin Sensitization Assay” value read?
Its value is “+++ (Cisplatin sensitization value of <0.02 μM)”.

Which “Cisplatin Sensitization Assay” value does the source give for Cc1cncc(NC(=O)c2c(N)nn3cc(F)cnc23)c1-n1nccc1C [I-N-237] here?
The value was “+ (Cisplatin sensitization value>0.2 μM but <5 μM)”.

With Nc1nn2cc(F)cnc2c1C(=O)Nc1cnccc1N1CCN2C(=O)OCC2C1 (stereo not drawn) [I-N-238, 2-amino-6-fluoro-N-(4-(3-oxotetrahydro-1H-oxazolo[3,4-a]pyrazin-7(3H)-yl)pyridin-3-yl)pyrazolo[1,5-a]pyrimidine-3-carboxamide] as the molecule, how does the “Cisplatin Sensitization Assay” value read?
The value was “++ (Cisplatin sensitization value>0.02 μM but <0.2 μM)”.

With Nc1nn2cc(F)cnc2c1C(=O)Nc1cncc(F)c1N1CCC2(CC1)COC2 [I-N-239, 2-amino-6-fluoro-N-(5-fluoro-4-(2-oxa-7-azaspiro[3.5]nonan-7-yl)pyridin-3-yl)pyrazolo[1,5-a]pyrimidine-3-carboxamide] as the molecule, how does the “Cisplatin Sensitization Assay” value read?
Its value is “+++ (Cisplatin sensitization value of <0.02 μM)”.

Which “Cisplatin Sensitization Assay” value does the source give for CN1CCN2CCN(c3c(F)cncc3NC(=O)c3c(N)nn4cc(F)cnc34)CC2C1=O (stereo not drawn) [I-N-240, 2-amino-6-fluoro-N-(5-fluoro-4-(8-methyl-9-oxohexahydro-1H-pyrazino[1,2-a]pyrazin-2(6H)-yl)pyridin-3-yl)pyrazolo[1,5-a]pyrimidine-3-carboxamide] here?
Its value is “++ (Cisplatin sensitization value>0.02 μM but <0.2 μM)”.

How did the “Cisplatin Sensitization Assay” value turn out when Nc1nn2cc(F)cnc2c1C(=O)Nc1cnccc1N1CCC(c2ncon2)CC1 [I-N-241, N-(4-(4-(1,2,4-oxadiazol-3-yl)piperidin-1-yl)pyridin-3-yl)-2-amino-6-fluoropyrazolo[1,5-a]pyrimidine-3-carboxamide] was run?
The value was “+++ (Cisplatin sensitization value of <0.02 μM)”.

Source: patent US11370798B2 (Vertex Pharmaceuticals Incorporated, priority 2012, dated 2022)
